46 compounds from ChEMBL document CHEMBL1201862, “PubChem BioAssay data set” (2004) can be followed below.

Some test systems named below: BT-549; KM-20L2; SNB-78; DMS-273; M19-MEL; DMS-114; LXFL 529.
Common to all, as to test: growth of human tumour cells (NCI), 48 h

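Results reflect a 48-hour exposure of cells in 96-well plates to compound at five concentrations. GI50: concentration for 50% inhibition of growth.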 The source made the active and inactive calls. Cut-off read from the data, not from the text of the source: active = GI50 up to about 1.1 µM and inactive = higher. *1 amine or outer side, *2 acyl side, *3 side chain or, on linkers, in order; H or OH if unused. Where a SMILES comes first, the peptide text is derived from it. Non-standard residues stand in square brackets, D forms with d. Residues, ends and D or L forms follow the SMILES beside them. Bridges are numbered along the chain shown (N, C = ends). [ ]: non-standard residue; d: D form. ξ: configuration not given here. *: point of attachment. X36 = CC[C@H](C)[C@@H](N[*:1])[C@@H](O)CC(=O)O[C@H](C(=O)[C@H](C)C(=O)[*:2])C(C)C; NMeY = CN[C@@H](Cc1ccc(O)cc1)C(=O)O; ξF = NC(Cc1ccccc1)C(=O)O; Cbz = O=C(OCc1ccccc1)*

Take `CC1CCC(C(=O)O)(C(Br)C(=O)O)CC1` (stereo unspecified): the GI50 in the experiment on BT-549 was > 100 µM (inactive). Turning to `CCOC(=O)CNC(=O)C(Cc1ccccc1)NC(=O)OCc1ccccc1` (stereo unspecified) (Cbz-[ξF]-Gly-OEt), the GI50 with BT-549 is > 100 µM (inactive). As for `CCOC(=O)C1=NN(c2ccc(C)cc2)C2(c3ccccc3)C=C(c3ccccc3)N(C)CCN12` (stereo unspecified), the GI50 in the experiment on BT-549 was > 100 µM (inactive).

In the case of `Clc1ccc(CCNC2(c3cc4ccccc4s3)CCCCC2)cc1Cl`, the GI50 with BT-549 was 28.2 µM (inactive). Turning to `COc1ccc(/N=C/C=C/Nc2ccc(OC)cc2)cc1`, the GI50 in the experiment with BT-549 is 4.18 µM (inactive). With `Cc1ccc(-n2cc(-c3ccc(Cl)cc3)c3c(NNC(=S)NCc4ccccc4)ncnc32)cc1`, the GI50 in the experiment with BT-549 is 17.9 µM (inactive). Same read-out and setting: for `O=C1CC(C(=O)O)Cc2c(Br)ccc(O)c21` (stereo unspecified) the value was > 100 µM (inactive). With `Nc1nc(NNc2ccccc2F)cc(=O)[nH]1`, the GI50 with BT-549 is > 100 µM (inactive). Consider `COCOc1cc(OC)ccc1C/C=N/O`, for which, in the experiment on BT-549, the GI50 is > 100 µM (inactive).

In the case of `c1ccc2/c3[nH]/c(c2c1)=N\c1ccc(cc1)-c1nc2ccc(cc2o1)/N=c1/[nH]/c(c2ccccc12)=N/c1ccc2nc(oc2c1)-c1ccc(cc1)\N=3`, in the experiment on BT-549, the GI50 was > 100 µM (inactive). Turning to `O=c1cc(N2CCN(c3cc(=O)n4ccccc4n3)CC2)oc2ccccc12`, the GI50 in the experiment on BT-549 is 68.1 µM (inactive).

Regarding `CCN(CC)CCCNc1c2cc(OC)ccc2nc2cccc([N+](=O)[O-])c12`, the GI50 with BT-549 is 0.2 µM (active). `CN1C(=O)N/C(=C\c2ccc(S(=O)(=O)NN)cc2)C1=O`: the GI50 in the experiment on BT-549 is > 100 µM (inactive). `CCCCCCCCCCCC(=O)Oc1c(Cl)cc(Cl)c(OC(=O)C(=O)Oc2c(Cl)cc(Cl)c(OC(=O)CCCCCCCCCCC)c2Cl)c1Cl`: the GI50 in the experiment on BT-549 is > 100 µM (inactive). Regarding `CC(=O)C1COC(O)C1C` (stereo unspecified), the GI50 with BT-549 is 30 µM (inactive).

Turning to `Cc1nnc(CC#N)n1NC(=O)CC#N`, the GI50 in the experiment on BT-549 is > 100 µM (inactive).

With `O=c1[nH]nc(Cc2ccccc2)n1N=C1CCCCC1`, the GI50 with BT-549 was > 100 µM (inactive). As for `CC[C@H](C)[C@H]1NC(=O)[C@@H](N)[C@@H](C)OC(=O)[C@H](Cc2ccc(OC)cc2)N(C)C(=O)[C@@H]2CCCN2C(=O)[C@H](CC(C)C)NC(=O)[C@@H](C)C(=O)[C@H](C(C)C)OC(=O)C[C@@H]1O` (H-T[X36]LP[NMeY](Me); ester 1-C), the GI50 with BT-549 was 20.2 µM (inactive). On the same count and under the same terms, for `CCc1c(O)nc(Nc2nc3ccccc3[nH]2)[nH]c1=O` the value was > 100 µM (inactive); for `Oc1cc(O)c2c(c1)OC(c1ccc(O)c(O)c1)C(OC1(c3cc(O)c(O)c(O)c3)Oc3cc(O)cc(O)c3C(O)C1O)C2` (stereo unspecified), 26.8 µM (inactive); for `CN(C)c1nc(N)nc(CCl)n1`, 40 µM (inactive). Consider `CCCCn1c2ccccc2c2ccc3c(c21)C(=O)C=CC3=O`, for which the GI50 is > 100 µM (inactive) in the experiment on KM-20L2; > 100 µM (inactive) in the experiment with SNB-78; > 100 µM (inactive) with DMS-273; 0.185 µM (active) in the experiment with M19-MEL; > 100 µM (inactive) in the experiment with DMS-114; > 100 µM (inactive) with LXFL 529. In the case of `CCCCOCOc1ccccc1P1(=O)COc2ccccc2OC1`, the GI50 with BT-549 is 41.5 µM (inactive). On to `CC/C(Cl)=N\OC(=O)Nc1ccc(F)c(Cl)c1`, for which, in the experiment on BT-549, the GI50 was 16.6 µM (inactive).

With `Cc1ccc(-c2cc(=O)c3cc(C)c(C)c(C(=O)O)c3o2)cc1[N+](=O)[O-]`, the GI50 in the experiment with KM-20L2, in the experiment with SNB-78, in the experiment on DMS-273, in the experiment on M19-MEL, with DMS-114 and in the experiment with LXFL 529 was > 100 µM (inactive) each time. Take `O=C(COc1ccc(OCC(=O)N2C(=O)CN(c3ccc(Cl)cc3)C2=S)cc1)N1C(=O)CN(c2ccc(Cl)cc2)C1=S`: in the experiment with BT-549, the GI50 is 31.5 µM (inactive). For `Cc1nc2ccccc2n1CCc1nc2ccccc2s1`, in the experiment with BT-549, the GI50 was > 100 µM (inactive).

`C=CCN1C[C@H](C)N([C@H](c2ccc(C(=O)N(CC)CCO)cc2)c2cccc(OC)c2)C[C@H]1C`: the GI50 with BT-549 was > 100 µM (inactive).

For the compound `Cc1cc(O)c2c3c(ccc2c1)C(=O)c1c(O)cccc1C3=O` [TETRANGULOL], in the experiment on BT-549, the GI50 was 55.5 µM (inactive). For `C=C1c2nc3ccccc3n2C=C(c2ccc(Cl)cc2)N1c1ccc(OCCN2CCOCC2)cc1`, in the experiment with BT-549, the GI50 was 39.3 µM (inactive). Regarding `CCC(=O)n1c(=O)n(-c2ccc([N+](=O)[O-])cc2)c(=O)n1C(=O)CC`, the GI50 in the experiment with BT-549 is > 100 µM (inactive).

Consider `Cc1ccc2c(c1)nc1n2C(c2c(F)cccc2F)SC1` (stereo unspecified), for which the GI50 in the experiment with BT-549 is > 10 µM (inactive). `Oc1c(Br)cc(/C=C/c2cccc(/C=C/c3cc(Br)c(O)c(Br)c3)n2)cc1Br`: the GI50 in the experiment on BT-549 was 26.1 µM (inactive). The same measure, in the same setting: for `Cc1nc2c(=O)[nH]c(=O)nc-2n(CCO)c1C` the value was > 100 µM (inactive).

For `O=C(CCN1CCCCC1CO)Nc1ccc2c(c1)C(=O)c1ccc(NC(=O)CCN3CCCCC3CO)cc1C2=O` (stereo unspecified), the GI50 with KM-20L2 is 25.6 µM (inactive); in the experiment with SNB-78 it was 7.36 µM (inactive); with DMS-273, 5.16 µM (inactive); in the experiment on M19-MEL it was 15.8 µM (inactive); in the experiment with DMS-114, 14.1 µM (inactive); in the experiment with LXFL 529 it was 2.34 µM (inactive).

With `COC(=O)C1=C([C@H]2COC(C)(C)O2)[C@H]2C[C@@H]1[C@@H]1OC(C)(C)O[C@@H]12`, the GI50 with BT-549 was > 100 µM (inactive).

`CCOC(=O)c1nc2ccc(C(F)(F)F)cc2nc1Nc1ccc(OC)cc1`: in the experiment with BT-549, the GI50 is 27.9 µM (inactive). Consider `CCCC(=O)Nc1cc(/C=C/C(=O)N2CC(CCl)c3c2cc(O)c2[nH]cc(C)c32)n(C)c1` (stereo unspecified), for which the GI50 in the experiment with BT-549 is < 2.5e-05 µM (active).

Regarding `Cc1ccc(/C=C2\CN(C)CC3C2=NN(c2ccccc2)C3c2ccc(C)cc2)cc1` (stereo unspecified), the GI50 in the experiment on BT-549 is > 100 µM (inactive). Same read-out and setting: for `COC(=O)c1cc2c(cc1Cl)Sc1nnc(Nc3ccccc3)n1S2(=O)=O` the value was 4.46 µM (inactive). As for `O=C1C[C@@H]2[C@@H](CCC23CC3)N1`, the GI50 in the experiment on KM-20L2, in the experiment with SNB-78, in the experiment on DMS-273, with M19-MEL, with DMS-114 and in the experiment on LXFL 529 was > 100 µM (inactive) throughout. For the compound `CCOP(=O)(OCC)C(=C1C=C(C(C)(C)C)C(=O)C(C(C)(C)C)=C1)P(=O)(OCC)OCC`, the GI50 in the experiment on BT-549 is 2.86 µM (inactive).

As for `O=C1CS(=O)(=O)C(c2cccc(Oc3ccccc3)c2)N1C1CC1` (stereo unspecified), the GI50 with BT-549 is 41.7 µM (inactive). Turning to `Clc1ccccc1/C=c1\nc(-c2ccccc2)n2c1nc1ccccc12`, the GI50 with BT-549 was 18.2 µM (inactive). Regarding `CC(C)=CCC[C@](C)(O[C@@H]1O[C@H](CO)[C@@H](O)[C@H](O)[C@H]1O)[C@H]1CC[C@]2(C)[C@@H]1[C@H](O)C[C@@H]1[C@@]3(C)CC[C@H](O)C(C)(C)[C@@H]3[C@@H](O[C@@H]3O[C@H](CO)[C@@H](O)[C@H](O)[C@H]3O[C@@H]3O[C@@H](C)[C@H](O)[C@@H](O)[C@H]3O)C[C@]12C.CC(C)=CCC[C@](C)(O[C@@H]1O[C@H](CO)[C@@H](O)[C@H](O)[C@H]1O)[C@H]1CC[C@]2(C)[C@@H]1[C@H](O)C[C@@H]1[C@@]3(C)CC[C@H](O)C(C)(C)[C@@H]3[C@@H](O[C@@H]3O[C@H](CO)[C@@H](O)[C@H](O)[C@H]3O[C@@H]3O[C@H](CO)[C@@H](O)[C@H](O)[C@H]3O)C[C@]12C`, the GI50 in the experiment on BT-549 was 28.2 µM (inactive).

Turning to `CC(=O)O[C@H]1CCC2[C@@H]3CCC4Nc5oncc5C[C@]4(C)C3CC[C@@]21C` (stereo partly specified), in the experiment on BT-549, the GI50 was > 10 µM (inactive).
